Columns and labels:
Assay type in all cases: in vivo
[1] = system: cocklebur (Xanthium strumarium); assay: Test B postemergence; settings: 13 to 15 days
How it was run: (§1)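 Post-treatment, species sat 13–15 days under greenhouse conditions before visual scoring against controls, 0 (no effect) through 100 (complete control). Application preemergence to sown seeds or postemergence at 1- to 4-leaf stage, using a non-phytotoxic solvent/surfactant formulation.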

[2] = system: crabgrass (Digitaria sanguinalis); assay: Test B postemergence; settings: 13 to 15 days
How it was run: as §1

[3] = system: lambsquarters (Chenopodium album); assay: Test B postemergence; settings: 13 to 15 days
How it was run: as §1

wild oat (Avena fatua) = assay: Test B postemergence; settings: 13 to 15 days
How it was run: as §1

Nightshade = assay: Test C preemergence
Description: (§2) Seeds of plant species selected from bermudagrass (Cynodon dactylon), Surinam grass (Brachiaria decumbens), cocklebur (Xanthium strumarium), corn (Zea mays), crabgrass (Digitaria sanguinalis), woolly cupgrass (Eriochloa villosa), giant foxtail (Setaria faberii), goosegrass (Eleusine indica), johnsongrass (Sorghum halepense), kochia (Kochia scoparia), lambsquarters (Chenopodium album), morningglory (Ipomoea hederacea), yellow nutsedge (Cyperus esculentus), pigweed (Amaranthus retroflexus), common ragweed (Ambrosia elatior), soybean (Glycine max) and velvetleaf (Abutilon theophrasti) were planted and treated preemergence with test chemicals formulated in a non-phytotoxic solvent mixture which included a surfactant.
(§3) At the same time, plants selected from these crop and weed species and also winter barley (Hordeum vulgare), blackgrass (Alopecurus myosuroides), canary grass (Phalaris minor), chickweed (Stellaria media), downy brome (Bromus tectorum), green foxtail (Setaria viridis), Italian ryegrass (Lolium multiflorum), wheat (Triticum aestivum), wild oat (Avena fatua) and windgrass (Apera spica-venti) were treated with postemergence applications of some of the test chemicals formulated in the same manner. Plants ranged in height from 2 to 18 cm (1- to 4-leaf stage) for postemergence treatments. Plant species in the flooded paddy test consisted of rice (Oryza saliva), smallflower flatsedge (Cyperus difformis), duck salad (Heteranthera limosa) and barnyardgrass (Echinochloa crus-galli) grown to the 2-leaf stage for testing. Treated plants and controls were maintained in a greenhouse for 12 to 14 days, after which time all species were compared to controls and visually evaluated. Plant response ratings, summarized in Table C, are based on a scale of 0 to 100 where 0 is no effect and 100 is complete control. A dash (-) response means no test result.

Sunflower [4] = assay: Test C preemergence; settings: Rate 62 g/ha; scale 0 to 100, 0 no effect, 100 complete control
Description: as §2, §3

[5] = system: Surinam grass (Brachiaria decumbens); assay: Test C preemergence; settings: for Plant response rating (0 to 100), Surinam grass: Rate 250 g/ha, visual evaluation after 12 to 14 days
Description: as §2, §3

[6] = system: bermudagrass (Cynodon dactylon); assay: Test C preemergence; settings: for Plant response rating (0 to 100 where 0 is no effect and 100 is complete control), Bermudagrass: Rate 250 g/ha, visual evaluation after 12 to 14 days
Description: as §2, §3

[7] = system: cocklebur (Xanthium strumarium); assay: Test C preemergence; settings: for Plant response rating (0 to 100), Cocklebur: Rate 250 g/ha, visual evaluation after 12 to 14 days
Description: as §2, §3

corn (Zea mays) = assay: Test C preemergence; settings: for Plant response rating (0 to 100), Corn: Rate 250 g/ha, visual evaluation after 12 to 14 days
Description: as §2, §3

[8] = system: giant foxtail (Setaria faberii); assay: Test C preemergence; settings: for Plant response rating (0 to 100), Foxtail, Giant: Rate 250 g/ha, visual evaluation after 12 to 14 days
Description: as §2, §3

[9] = system: johnsongrass (Sorghum halepense); assay: Test C preemergence; settings: for Plant response rating (0 to 100), Johnsongrass: Rate 250 g/ha, visual evaluation after 12 to 14 days
Description: as §2, §3

kochia (Kochia scoparia) = assay: Test C preemergence; settings: for Plant response rating (0 to 100), Kochia: Rate 250 g/ha, visual evaluation after 12 to 14 days
Description: as §2, §3

[10] = system: lambsquarters (Chenopodium album); assay: Test C preemergence; settings: for Plant response rating (0 to 100), Lambsquarters: Rate 250 g/ha, visual evaluation after 12 to 14 days
Description: as §2, §3

[11] = system: pigweed (Amaranthus retroflexus); assay: Test C preemergence; settings: for Plant response rating (0 to 100), Pigweed: Rate 250 g/ha, visual evaluation after 12 to 14 days
Description: as §2, §3

soybean (Glycine max) = assay: Test C preemergence; settings: for Plant response rating (0 to 100), Soybean: Rate 250 g/ha, visual evaluation after 12 to 14 days
Description: as §2, §3

[12] = system: velvetleaf (Abutilon theophrasti); assay: Test C preemergence; settings: for Plant response rating (0 to 100), Velvetleaf: Rate 250 g/ha, visual evaluation after 12 to 14 days
Description: as §2, §3

[13] = system: woolly cupgrass (Eriochloa villosa); assay: Test C preemergence; settings: for Plant response rating (0 to 100), Cupgrass, Woolly: Rate 250 g/ha, visual evaluation after 12 to 14 days
Description: as §2, §3

Sunflower [14] = assay: Test C preemergence; settings: Rate 250 g/ha, visual evaluation after 12 to 14 days
[15] = Rate 125 g/ha, scale 0 (no effect) to 100 (complete control)
[16] = Rate 500 g/ha, scale 0 to 100, 0 is no effect, 100 is complete control
[17] = Rate 62 g/ha, scale 0 to 100, 0 no effect, 100 complete control
[18] = Rate 125 g/ha, scale 0 to 100, 0 no effect, 100 complete control
[19] = preemergence, Rate 31 g/ha, scale 0 to 100
[20] = preemergence, Rate 125 g/ha, scale 0 to 100, 0 no effect, 100 complete control

SMILES: O=C1C(n2ccc(C3CC3)n2)OCN1c1cccc(C(F)(F)F)c1 (stereo not shown) [Compound 28]
- Plant response rating, Cocklebur [1, 15]: 0
- Plant response rating, Cocklebur [1, 16]: 0
- Plant response rating, Crabgrass [2, 15]: 20
- Plant response rating, Crabgrass [2, 16]: 30
- Plant response rating, Lambsquarters [3, 15]: 60
- Plant response rating, Lambsquarters [3, 16]: 70
- Plant response rating, Wild Oat (wild oat (Avena fatua); [15]): 0
- Plant response rating, Wild Oat (wild oat (Avena fatua); [16]): 0
- Plant response rating, Nightshade (Nightshade; Rate 31 g/ha, scale 0 to 100): 0
- Plant response rating, Nightshade (Nightshade; [17]): 0
- Plant response rating, Nightshade (Nightshade; [18]): 70
- Plant response rating, Sunflower (Sunflower [4]): 20
- Plant response rating, Surinam grass [5, 17]: 20
- Plant response rating, Surinam grass [5, 19]: 20
- Plant response rating (0 to 100), Surinam grass ([5]; preemergence): 60
- Plant response rating, Surinam grass [5, 20]: 60
- Plant response rating, Bermudagrass [6, 17]: 50
- Plant response rating, Bermudagrass [6, 19]: 20
- Plant response rating (0 to 100 where 0 is no effect and 100 is complete control), Bermudagrass ([6]; preemergence): 100
- Plant response rating, Bermudagrass [6, 20]: 100
- Plant response rating, Cocklebur [7, 19]: 0
- Plant response rating (0 to 100), Cocklebur ([7]; preemergence): 0
- Plant response rating, Cocklebur [7, 20]: 0
- Plant response rating, Corn (corn (Zea mays); [17]): 0
- Plant response rating, Corn (corn (Zea mays); [19]): 0
- Plant response rating (0 to 100), Corn (corn (Zea mays); preemergence): 30
- Plant response rating, Corn (corn (Zea mays); [20]): 30
- Plant response rating, Foxtail, Giant [8, 17]: 0
- Plant response rating, Foxtail, Giant [8, 19]: 0
- Plant response rating (0 to 100), Foxtail, Giant ([8]; preemergence): 0
- Plant response rating, Foxtail, Giant [8, 20]: 100
- Plant response rating, Johnsongrass [9, 17]: 50
- Plant response rating, Johnsongrass [9, 19]: 0
- Plant response rating (0 to 100), Johnsongrass ([9]; preemergence): 70
- Plant response rating, Johnsongrass [9, 20]: 70
- Plant response rating, Kochia (kochia (Kochia scoparia); [17]): 40
- Plant response rating, Kochia (kochia (Kochia scoparia); [19]): 0
- Plant response rating (0 to 100), Kochia (kochia (Kochia scoparia); preemergence): 100
- Plant response rating, Kochia (kochia (Kochia scoparia); [20]): 100
- Plant response rating, Lambsquarters [10, 17]: 100
- Plant response rating, Lambsquarters [10, 19]: 100
- Plant response rating (0 to 100), Lambsquarters ([10]; preemergence): 100
- Plant response rating, Lambsquarters [10, 20]: 100
- Plant response rating, Pigweed [11, 17]: 70
- Plant response rating, Pigweed [11, 19]: 70
- Plant response rating (0 to 100), Pigweed ([11]; preemergence): 50
- Plant response rating, Pigweed [11, 20]: 100
- Plant response rating, Soybean (soybean (Glycine max); [17]): 0
- Plant response rating, Soybean (soybean (Glycine max); [19]): 0
- Plant response rating (0 to 100), Soybean (soybean (Glycine max); preemergence): 40
- Plant response rating, Soybean (soybean (Glycine max); [20]): 40
- Plant response rating, Velvetleaf [12, 17]: 0
- Plant response rating, Velvetleaf [12, 19]: 0
- Plant response rating (0 to 100), Velvetleaf ([12]; preemergence): 0
- Plant response rating, Velvetleaf [12, 20]: 0
- Plant response rating, Cupgrass, Woolly [13, 17]: 50
- Plant response rating, Cupgrass, Woolly [13, 19]: 30
- Plant response rating (0 to 100), Cupgrass, Woolly ([13]; preemergence): 100
- Plant response rating, Cupgrass, Woolly [13, 20]: 70
- Plant response rating (0 to 100), Sunflower (Sunflower [14]): 40

SMILES: CC(C)c1ccn(C2OCN(c3cccc(C(F)(F)F)c3)C2=O)n1 (stereo not shown) [Compound 27]
- Plant response rating, Cocklebur [1, 15]: 0
- Plant response rating, Cocklebur [1, 16]: 30
- Plant response rating, Crabgrass [2, 15]: 20
- Plant response rating, Crabgrass [2, 16]: 40
- Plant response rating, Lambsquarters [3, 15]: 50
- Plant response rating, Lambsquarters [3, 16]: 90
- Plant response rating, Wild Oat (wild oat (Avena fatua); [15]): 0
- Plant response rating, Wild Oat (wild oat (Avena fatua); [16]): 0
- Plant response rating, Nightshade (Nightshade; Rate 31 g/ha, scale 0 to 100): 0
- Plant response rating, Nightshade (Nightshade; [17]): 0
- Plant response rating, Nightshade (Nightshade; [18]): 0
- Plant response rating, Sunflower (Sunflower [4]): 20
- Plant response rating, Surinam grass [5, 17]: 50
- Plant response rating, Surinam grass [5, 19]: 0
- Plant response rating (0 to 100), Surinam grass ([5]; preemergence): 80
- Plant response rating, Surinam grass [5, 20]: 50
- Plant response rating, Bermudagrass [6, 17]: 90
- Plant response rating, Bermudagrass [6, 19]: 30
- Plant response rating (0 to 100 where 0 is no effect and 100 is complete control), Bermudagrass ([6]; preemergence): 100
- Plant response rating, Bermudagrass [6, 20]: 100
- Plant response rating, Cocklebur [7, 17]: 0
- Plant response rating, Cocklebur [7, 19]: 0
- Plant response rating (0 to 100), Cocklebur ([7]; preemergence): 0
- Plant response rating, Cocklebur [7, 20]: 0
- Plant response rating, Corn (corn (Zea mays); [17]): 20
- Plant response rating, Corn (corn (Zea mays); [19]): 0
- Plant response rating (0 to 100), Corn (corn (Zea mays); preemergence): 30
- Plant response rating, Corn (corn (Zea mays); [20]): 20
- Plant response rating, Foxtail, Giant [8, 17]: 70
- Plant response rating, Foxtail, Giant [8, 19]: 0
- Plant response rating (0 to 100), Foxtail, Giant ([8]; preemergence): 0
- Plant response rating, Foxtail, Giant [8, 20]: 100
- Plant response rating, Johnsongrass [9, 17]: 20
- Plant response rating, Johnsongrass [9, 19]: 0
- Plant response rating (0 to 100), Johnsongrass ([9]; preemergence): 50
- Plant response rating, Johnsongrass [9, 20]: 50
- Plant response rating, Kochia (kochia (Kochia scoparia); [17]): 100
- Plant response rating, Kochia (kochia (Kochia scoparia); [19]): 0
- Plant response rating (0 to 100), Kochia (kochia (Kochia scoparia); preemergence): 100
- Plant response rating, Kochia (kochia (Kochia scoparia); [20]): 100
- Plant response rating, Lambsquarters [10, 17]: 100
- Plant response rating, Lambsquarters [10, 19]: 100
- Plant response rating (0 to 100), Lambsquarters ([10]; preemergence): 100
- Plant response rating, Lambsquarters [10, 20]: 100
- Plant response rating, Pigweed [11, 17]: 0
- Plant response rating, Pigweed [11, 19]: 100
- Plant response rating (0 to 100), Pigweed ([11]; preemergence): 100
- Plant response rating, Pigweed [11, 20]: 100
- Plant response rating, Soybean (soybean (Glycine max); [17]): 30
- Plant response rating, Soybean (soybean (Glycine max); [19]): 0
- Plant response rating (0 to 100), Soybean (soybean (Glycine max); preemergence): 50
- Plant response rating, Soybean (soybean (Glycine max); [20]): 40
- Plant response rating, Velvetleaf [12, 17]: 0
- Plant response rating, Velvetleaf [12, 19]: 0
- Plant response rating (0 to 100), Velvetleaf ([12]; preemergence): 0
- Plant response rating, Velvetleaf [12, 20]: 0
- Plant response rating, Cupgrass, Woolly [13, 17]: 50
- Plant response rating, Cupgrass, Woolly [13, 19]: 50
- Plant response rating (0 to 100), Cupgrass, Woolly ([13]; preemergence): 100
- Plant response rating, Cupgrass, Woolly [13, 20]: 80
- Plant response rating (0 to 100), Sunflower (Sunflower [14]): 20

Reference: patent publication US7138361B2, “Herbicidal heterocycles” (E. I. du Pont de Nemours and Company, priority 2000, dated 2006)
